Columns and labels:
A549 cells = experiment: Cytotoxicity Potentiation Assay; format: cell-based; conditions: ratio of IC50 of topotecan alone to IC50 of topotecan in combination with test compound
Procedure: A549 cells (ATCC, Rockville, Md.) were seeded into 96-well cell culture plates (Falcon brand, Fisher Scientific, Pittsburgh, Pa.) 16 to 24 hours before experimental manipulation. Cells were then treated with a test compound (or a combination of test compounds where indicated) for either 3 days or 5 days. At the end of treatments, relative cell number was determined either by MTT assay or SRB assay. For the MTT assay, 0.2 μg/μl of MTT (3-(4,5-dimethylthiazol-2-yl)-2,5-diphenyltetrazolium bromide, Sigma Chemical Co., St. Louis, Mo.) was added to each well of a plate, and the plate was incubated in a cell-culture incubator for 4 hours. Metabolized MTT in each well was solubilized in 150 μl of DMSO (Sigma Chemical Co.) with shaking and quantified with a Wallac 1420 Victor plate reader (EG & G Wallac, Gaithersburg, Md.) at 540 nm. For the SRB assay, cells were fixed with 10% trichloroacetic acid (Sigma Chemical Co) for an hour at 4° C. After extensively washing, fixed cells were stained for 30 minutes with 0.4% sulforhodamine B (SRB, Sigma Chemical Co.) in 1% acetic acid (Sigma Chemical Co). Unbound SRB was washed away with 1% acetic acid. Then the cultures were air-dried, and bound dye was solubilized with 10 mM unbuffered Tris base (Sigma Chemical Co) with shaking. The bound dye was measured photometrically with the Wallac Victor plate reader at 515 nm. The ratio of the OD (optical density) value of a compound-treated culture to the OD value of a mock-treated culture, expressed in percentage, was used to quantify the cytotoxicity of a compound. The concentration at which a compound causes 50% cytotoxicity is referred to as IC50. To quantify the potentiation of the cytotoxicity of topotecan or temozolomide by test compounds, a dimensionless parameter PF50 is used and is defined as the ratio of the IC50 Of topotecan or temozolomide alone to the IC50 of topotecan or temozolomide in combination with a test compound. For the compounds of the invention, PF50 values were determined by testing with topotecan.

purified PARP protein = purified PARP protein (Homo sapiens, UniProt P09874); experiment: PARP Enzyme Inhibition Assay; format: biochemical; conditions: [32P]NAD+ incorporation, 500 μM NAD+, 25° C.; competitive inhibition fit; read-out: Inhibition Constant Ki
Procedure: The PARP enzyme-inhibiting activities of test compounds were assayed as described by Simonin et al. (J. Biol. Chem. (1993), 268:8529-8535) and Marsischky et al. (J. Biol. Chem. (1995), 270:3247-3254) with minor modifications as follows. Samples (50 μL) containing 20 nM purified PARP protein, 10 μg/mL DNAse I-activated calf thymus DNA (sigma), 500 μM NAD^+, 0.5 μCi [^32P]NAD^+, 2% DMSO, and various concentrations of test compounds were incubated in sample buffer (50 mM Tris pH 8.0, 10 mM MgCl2, 1 mM tris(carboxyethyl)phosphine HCl) at 25° C. for 5 minutes. Under these conditions, the reaction rate was linear for times up to 10 minutes. The reaction was stopped by the addition of an equal volume of ice-cold 40% trichloroacetic acid to the samples, which were then incubated on ice for 15 minutes. The samples were then transferred to a Bio-Dot microfiltration apparatus (BioRad), filtered through Whatman GF/C glass-fiber filter paper, washed 3 times with 150 μL of wash buffer (5% trichloroacetic acid, 1% inorganic pyrophosphate), and dried. [^32P]ADP-Ribose incorporation into the acid-insoluble material was quantitated using a PhosphorImager (Molecular Dynamics) and ImageQuant software. Inhibition constants (Ki) were calculated by non-linear regression analyses using the velocity equation for competitive inhibition (Segel, Enzyme Kinetics: Behavior and Analysis of Rapid Equilibrium and Steady-State Enzyme Systems, John Wiley & Sons, Inc., New York (1975), 100-125). In the case of tight-binding inhibitors, 5 nM enzyme was used and the reaction was incubated at 25° C. for 25 minutes. Ki values for tight-binding inhibitors were calculated using the equation described by Sculley et al. (Biochim. Biophys. Acta (11986), 874:44-53).

purified PARP protein, sequence (P09874 whole entry): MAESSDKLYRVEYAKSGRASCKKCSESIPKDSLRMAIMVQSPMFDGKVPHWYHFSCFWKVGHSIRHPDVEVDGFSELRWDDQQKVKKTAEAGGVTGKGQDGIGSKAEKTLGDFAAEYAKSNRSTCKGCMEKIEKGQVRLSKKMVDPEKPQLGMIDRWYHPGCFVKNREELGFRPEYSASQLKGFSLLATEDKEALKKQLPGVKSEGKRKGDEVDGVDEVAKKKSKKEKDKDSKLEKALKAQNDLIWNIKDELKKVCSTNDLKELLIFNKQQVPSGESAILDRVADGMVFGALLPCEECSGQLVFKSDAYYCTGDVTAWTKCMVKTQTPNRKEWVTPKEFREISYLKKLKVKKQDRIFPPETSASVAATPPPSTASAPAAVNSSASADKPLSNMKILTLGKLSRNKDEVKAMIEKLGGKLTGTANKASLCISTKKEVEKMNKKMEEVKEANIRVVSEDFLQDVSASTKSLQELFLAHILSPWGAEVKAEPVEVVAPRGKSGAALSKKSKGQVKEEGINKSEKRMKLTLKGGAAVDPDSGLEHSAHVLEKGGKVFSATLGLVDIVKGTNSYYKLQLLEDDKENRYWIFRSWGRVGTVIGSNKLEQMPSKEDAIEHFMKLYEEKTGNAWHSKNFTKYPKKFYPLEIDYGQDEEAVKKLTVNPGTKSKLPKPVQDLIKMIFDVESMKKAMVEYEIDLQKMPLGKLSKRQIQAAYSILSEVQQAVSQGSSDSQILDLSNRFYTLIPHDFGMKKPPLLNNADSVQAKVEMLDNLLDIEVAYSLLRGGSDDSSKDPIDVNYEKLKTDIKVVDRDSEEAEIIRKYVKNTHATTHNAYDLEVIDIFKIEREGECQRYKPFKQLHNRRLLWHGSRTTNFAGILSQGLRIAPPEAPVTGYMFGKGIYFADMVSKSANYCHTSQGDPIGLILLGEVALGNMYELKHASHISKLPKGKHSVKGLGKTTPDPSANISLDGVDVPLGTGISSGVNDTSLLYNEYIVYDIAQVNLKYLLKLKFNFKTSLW

**Q.** How did the “Cytotoxicity Potentiation PF50” value (A549 cells) turn out when `CC(=O)Nc1ccc(S(=O)(=O)Cc2nc3c(C(N)=O)cccc3[nH]2)cc1` [Compound 32, 2-(4-Acetylamino-benzenesulfonylmethyl)-1H-benzimidazole-4-carboxylic Acid Amide] was run?
**A.** 1.1

**Q.** What about the Ki (purified PARP protein) of the same molecule?
**A.** 0.0038 ± 0.0005 µM

**Q.** Which results are given for `COc1ccc(S(=O)(=O)Cc2nc3c(C(N)=O)cccc3[nH]2)cc1` [Compound 33, 2-(4-Methoxy-benzenesulfonylmethyl)-1H-benzimidazole-4-carboxylic Acid Amide]?
**A.** Cytotoxicity Potentiation PF50 (A549 cells): 1.3; Ki (purified PARP protein): 0.0103 ± 0.0003 µM

**Q.** Which results are given for `NC(=O)c1cccc2[nH]c(CS(=O)(=O)c3ccc(C(F)(F)F)cc3)nc12` [Compound 34, 2-(4-Trifluoromethyl-benzenesulfonylmethyl)-1H-benzimidazole-4-carboxylic Acid Amide]?
**A.** Cytotoxicity Potentiation PF50 (A549 cells): 1.2; Ki (purified PARP protein): 0.012 ± 0.001 µM

**Q.** Which “Cytotoxicity Potentiation PF50” value (A549 cells) does the source give for `NC(=O)c1cccc2[nH]c(CS(=O)(=O)c3ccc(NC(=O)OCc4ccccc4)cc3)nc12` [Compound 38, [4(4-Carbamoyl-1H-benzoimidazol-2-ylmethanesulfonyl)-phenyl]-carbamic Acid Benzyl Ester] here?
**A.** 1.1

**Q.** What about the Ki (purified PARP protein) of the same molecule?
**A.** 0.016 ± 0.001 µM

**Q.** What does the source list for `CC(=O)Nc1ccc(CSc2nc3c(C(N)=O)cccc3[nH]2)cc1` [Compound 42, 2-(4-Acetylamino-benzylsulfanyl)-1H-benzimidazole-4-carboxylic Acid Amide]?
**A.** Cytotoxicity Potentiation PF50 (A549 cells): 1.1; Ki (purified PARP protein): 0.011 ± 0.003 µM

**Q.** Which “Cytotoxicity Potentiation PF50” value (A549 cells) does the source give for `CC(=O)Nc1ccc(S(=O)(=O)Cc2nc3c(C(N)=O)cccc3n2C)cc1` [Compound 48, 2-(4-Acetylamino-benzenesulfonylmethyl)-1-methyl-1H-benzoimidazole-4-carboxylic Acid Amide] here?
**A.** 1.2

**Q.** What about the Ki (purified PARP protein) of the same molecule?
**A.** 0.01 ± 0.003 µM

**Q.** Which results are given for `NC(=O)c1cccc2[nH]c(CS(=O)(=O)c3ccc(NC(=O)CO)cc3)nc12` [Compound 49]?
**A.** Cytotoxicity Potentiation PF50 (A549 cells): 1.0; Ki (purified PARP protein): 0.0074 µM
